Reference: US20250034212A1, “PEPTIDE” (PEPTIDREAM INC., priority 2021, published 2025)
Starred links: 1 amine or outer side, 2 acyl side, 3 side chain; linkers in the order of their positions; H or OH if unused. Positions of bridges follow the written chain, without caps; N, C: chain ends. Non-standard residues stand in square brackets, D forms with d. Residues, ends and D or L forms follow the SMILES beside them. Groups on a side chain read outwards from the residue. *: point of attachment. KCOpipzaa = N6-(4-(carboxymethyl)piperazine-1-carbonyl)-L-lysine, O=C(NCCCC[C@H](N[*:1])C(=O)[*:2])N1CCN(CC(=O)[*:3])CC1; Meglumine = CN(C[C@H](O)[C@@H](O)[C@H](O)[C@H](O)CO)*; Piperazinyl(4-CH2COOH) = O=C(O)CN1CCN(*)CC1; 1Nal = N[C@@H](Cc1cccc2ccccc12)C(=O)O; Gly(NCH2CH2Ph) = O=C(O)CNCCc1ccccc1; 4Pal = N[C@@H](Cc1ccncc1)C(=O)O; CO = O=C([*:1])[*:2]

B1: TGFb1_021 (peptide)
peptide: {CH2CO}-F[1Nal]VVNV[4Pal]DE[Gly(NCH2CH2Ph)]V[1Nal]YH[KCOpipzaa]CG-NH2
modifications: thioether N-16
SMILES: CC(C)[C@@H]1NC(=O)CN(CCc2ccccc2)C(=O)[C@H](CCC(=O)O)NC(=O)[C@H](CC(=O)O)NC(=O)[C@H](Cc2ccncc2)NC(=O)[C@H](C(C)C)NC(=O)[C@H](CC(N)=O)NC(=O)[C@H](C(C)C)NC(=O)[C@H](C(C)C)NC(=O)[C@H](Cc2cccc3ccccc23)NC(=O)[C@H](Cc2ccccc2)NC(=O)CSC[C@@H](C(=O)NCC(N)=O)NC(=O)[C@H](CCCCNC(=O)N2CCN(CC(=O)O)CC2)NC(=O)[C@H](Cc2c[nH]cn2)NC(=O)[C@H](Cc2ccc(O)cc2)NC(=O)[C@H](Cc2cccc3ccccc23)NC1=O
notes: cyclic peptide; C-terminal G is a linker

Experiments:
recombinant human TGF-β1 [1] = molecular target: T1, recombinant human TGF-β1 (Homo sapiens, UniProt P01137); experiment: SPR intermolecular interaction test, TGF-β1 immobilized on CM3 sensor chip (Biacore T200); type: binding; conditions: for Kd: Single Cycle Kinetics, human TGF-β1
T1 construct: purchased R&D systems
T1 sequence (P01137 279-390 limits assumed): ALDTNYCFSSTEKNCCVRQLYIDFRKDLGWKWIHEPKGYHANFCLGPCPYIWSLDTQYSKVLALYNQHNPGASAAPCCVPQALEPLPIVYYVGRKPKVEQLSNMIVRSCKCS
Description: In this Example, (1) the activity of binding to TGF-β for various peptides consisting of the amino acid sequences set forth in SEQ ID NOs: 2-33 synthesized in Examples 1 to 5 and 7 was evaluated. (2) The activity and selectivity of binding of the peptide consisting of the amino acid sequence set forth in SEQ ID NO: 13 synthesized in Example 2 against two isoforms of TGF-β (TGF-β1 and β2) were checked. For this purpose, the intermolecular interaction of each peptide against TGF-β was tested by surface plasmon resonance (SPR) in the method described below. Specific test methods are described below.
A CM3 sensor chip (Global Life Science Technologies Japan Co., Ltd.) was inserted into a BiacoreT200 (Global Life Science Technologies Japan Co., Ltd.). Three priming runs were performed using running buffer: HBS-EP+ (Global Life Science Technologies Japan Co., Ltd.). The system was then equilibrated at a flow rate of 30 μL/min.
(§1) Subsequently, 50 μL of 60 mM EDC solution (Global Life Science Technologies Japan Co., Ltd.) and 50 μL of 650 mM NHS solution (Global Life Science Technologies Japan Co., Ltd.) were mixed. Next, the reaction was carried out at a flow rate of 10 μL/min for 420 seconds. Then, 150 μL of 0.2 μM TGF-β solution diluted in 10 mM acetic acid solution (pH 5.0) was prepared and reacted at a flow rate of 10 μL/min for 420 seconds to immobilize TGF-β on the CM3 sensor chip. TGF-β was human-derived TGF-β1 or β2 (recombinant human TGF-β1, 2) and was obtained from R&D systems. After immobilization, capping was performed by reacting with 1.0 M ethanolamine aqueous solution (Global Life Science Technologies Japan Co., Ltd.) at a flow rate of […] for 420 seconds.
(§2) A liquid prepared by dissolving each peptide at 10 mM in DMSO solution was diluted with running buffer to prepare a peptide-dissolved solution at a final concentration of 10 μM. Subsequently, 50 nM, 25 nM, 12.5 nM, 5 nM, and 2.5 nM peptide solutions were prepared. Using the above samples, the kinetics of each peptide against TGF-β was obtained by SPR measurement.
(§3) The kinetics evaluation model was Single Cycle Kinetics, and curve fitting was performed using Biacore T200 Evaluation Software Version 3.0 (Global Life Science Technologies Japan Co., Ltd.). The binding of various peptides to TGF-β was evaluated by performing least-squares curve fitting on the obtained sensorgram to calculate the KD value.

recombinant human TGF-β1 [2] = molecular target: T1, recombinant human TGF-β1; experiment: SBE reporter assay in SBE reporter-HEK293 cells, TGF-β1 stimulation; type: cell-based; conditions: for inhibition at 75 pM: peptide 0.075 nM; for inhibition at 75 pM / inhibition at 0.00075 µM / inhibition at 0.0075 µM / inhibition at 0.075 µM / inhibition at 62 pM / inhibition at 0.000185 µM / inhibition at 0.00056 µM / inhibition at 0.0017 µM / inhibition at 0.005 µM / inhibition at 0.015 µM: TGF-β1 0.13 nM, 18 hours; for inhibition at 0.00075 µM: peptide 0.75 nM; for inhibition at 0.0075 µM: peptide 7.5 nM; for inhibition at 0.075 µM: peptide 75.0 nM; for inhibition at 62 pM: peptide 0.062 nM; for inhibition at 0.000185 µM: peptide 0.185 nM; for inhibition at 0.00056 µM: peptide 0.56 nM; for inhibition at 0.0017 µM: peptide 1.7 nM; for inhibition at 0.005 µM: peptide 5.0 nM; for inhibition at 0.015 µM: peptide 15.0 nM
Outline: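 SBE luciferase reporter HEK293 cells in 0.5% FBS medium, preincubated 20 min with peptide, then stimulated 18 h with 0.13 nM recombinant human TGF-β1. Luminescence read; inhibition scaled with maximal TGF-β signal as 0% and unstimulated as 100%.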

[3] = molecular target: T2, recombinant human TGF-β1 (R&D systems) (human, UniProt P01137 279-390); experiment: cell-based or functional assay
T2 sequence (P01137 279-390 limits assumed): as above

[4] = molecular target: T2, recombinant human TGF-β1 (R&D systems); experiment: SPR, TGF-β1 immobilised, single cycle kinetics
Description: as §1, §2, §3

Molecule	Kd (recombinant human TGF-β1 [1]) [nM]	inhibition at 62 pM (recombinant human TGF-β1 [2]) [%]	inhibition at 0.000185 µM (recombinant human TGF-β1 [2]) [%]	inhibition at 0.00056 µM (recombinant human TGF-β1 [2]) [%]	inhibition at 0.0017 µM (recombinant human TGF-β1 [2]) [%]	inhibition at 0.005 µM (recombinant human TGF-β1 [2]) [%]	inhibition at 0.015 µM (recombinant human TGF-β1 [2]) [%]	also measured
CC(C)[C@@H]1NC(=O)CN(CCc2ccccc2)C(=O)[C@H](CC(=O)O)NC(=O)[C@H](CC(=O)O)NC(=O)[C@H](Cc2ccc(O)cc2)NC(=O)[C@H](C(C)C)NC(=O)[C@H](CC(N)=O)NC(=O)[C@H](C(C)C)NC(=O)[C@H](C(C)C)NC(=O)[C@H](Cc2cccc3ccccc23)NC(=O)[C@H](Cc2ccccc2)NC(=O)CSC[C@@H](C(=O)NCC(N)=O)NC(=O)[C@H](C(C)C)NC(=O)[C@H](Cc2c[nH]cn2)NC(=O)[C@H](Cc2ccc(O)cc2)NC(=O)[C@H](Cc2cccc3ccccc23)NC1=O [TGFb1_001, F-Nal1-V-V-N-V-Y-D-D-PeG-V-Nal1-Y-H-V-C-G] ({CH2CO}-F[1Nal]VVNVYDD[Gly(NCH2CH2Ph)]V[1Nal]YHVCG-NH2; thioether N-16)	–	–	–	–	–	–	–	ability of binding to TGF-β1 (in words) (recombinant human TGF-β1 [1]): confirmed to have TGF-β binding activity; TGF-β1 antagonist / inhibitory activity (in words) (recombinant human TGF-β1 [2]; SBE reporter assay, FIG. 1 and Tables 2 and 3): TGF-β antagonist activity; inhibition at 75 pM (recombinant human TGF-β1 [2]): 19.7%; inhibition at 0.00075 µM (recombinant human TGF-β1 [2]): 69.7%; inhibition at 0.0075 µM (recombinant human TGF-β1 [2]): 98.1%; inhibition at 0.075 µM (recombinant human TGF-β1 [2]): 101%
CC(C)[C@@H]1NC(=O)CN(CCc2ccccc2)C(=O)[C@H](CC(=O)O)NC(=O)[C@H](CC(=O)O)NC(=O)[C@H](Cc2ccncc2)NC(=O)[C@H](C(C)C)NC(=O)[C@H](CC(N)=O)NC(=O)[C@H](C(C)C)NC(=O)[C@H](C(C)C)NC(=O)[C@H](Cc2cccc3ccccc23)NC(=O)[C@H](Cc2ccccc2)NC(=O)CSC[C@@H](C(=O)NCC(N)=O)NC(=O)[C@H](C(C)C)NC(=O)[C@H](Cc2c[nH]cn2)NC(=O)[C@H](Cc2ccc(O)cc2)NC(=O)[C@H](Cc2cccc3ccccc23)NC1=O [TGFb1_006] ({CH2CO}-F[1Nal]VVNV[4Pal]DD[Gly(NCH2CH2Ph)]V[1Nal]YHVCG-NH2; thioether N-16)	1.03	–	–	–	–	–	–	inhibition at 75 pM (recombinant human TGF-β1 [2]): 2.8%; inhibition at 0.00075 µM (recombinant human TGF-β1 [2]): 69.3%; inhibition at 0.0075 µM (recombinant human TGF-β1 [2]): 97.1%; inhibition at 0.075 µM (recombinant human TGF-β1 [2]): 99.7%
CC(C)[C@@H]1NC(=O)CN(CCc2ccccc2)C(=O)[C@H](CC(=O)O)NC(=O)[C@H](CC(=O)O)NC(=O)[C@H](Cc2ccncc2)NC(=O)[C@H](C(C)C)NC(=O)[C@H](CC(N)=O)NC(=O)[C@H](C(C)C)NC(=O)[C@H](C(C)C)NC(=O)[C@H](Cc2cccc3ccccc23)NC(=O)[C@H](Cc2ccccc2)NC(=O)CSC[C@@H](C(N)=O)NC(=O)[C@H](CCCCNC(=O)N2CCN(CC(=O)O)CC2)NC(=O)[C@H](Cc2c[nH]cn2)NC(=O)[C@H](Cc2ccc(O)cc2)NC(=O)[C@H](Cc2cccc3ccccc23)NC1=O [TGFb1_013] ({CH2CO}-F[1Nal]VVNV[4Pal]DD[Gly(NCH2CH2Ph)]V[1Nal]YHK([CO-Piperazinyl(4-CH2COOH)])C-NH2; thioether N-16)	0.82	–	–	–	–	–	–	–
CC(C)[C@@H]1NC(=O)CN(CCc2ccccc2)C(=O)[C@H](CC(=O)O)NC(=O)[C@H](CC(=O)O)NC(=O)[C@H](Cc2ccncc2)NC(=O)[C@H](C(C)C)NC(=O)[C@H](CC(N)=O)NC(=O)[C@H](CCCCNC(=O)N2CCN(CC(=O)O)CC2)NC(=O)[C@H](C(C)C)NC(=O)[C@H](Cc2cccc3ccccc23)NC(=O)[C@H](Cc2ccccc2)NC(=O)CSC[C@@H](C(=O)NCC(N)=O)NC(=O)[C@H](CCCCNC(=O)N2CCN(CC(=O)O)CC2)NC(=O)[C@H](Cc2c[nH]cn2)NC(=O)[C@H](Cc2ccc(O)cc2)NC(=O)[C@H](Cc2cccc3ccccc23)NC1=O [TGFb1_019] ({CH2CO}-F[1Nal]VK([CO-Piperazinyl(4-CH2COOH)])NV[4Pal]DD[Gly(NCH2CH2Ph)]V[1Nal]YHK([CO-Piperazinyl(4-CH2COOH)])CG-NH2; thioether N-16)	1.41	5.21	11.3	30.2	61.6	87.8	96.4	–
CC(C)[C@@H]1NC(=O)CN(CCc2ccccc2)C(=O)[C@H](CC(=O)O)NC(=O)[C@H](CC(=O)O)NC(=O)[C@H](Cc2ccncc2)NC(=O)[C@H](C(C)C)NC(=O)[C@H](CC(N)=O)NC(=O)[C@H](CCCCNC(=O)N(C)C[C@H](O)[C@@H](O)[C@H](O)[C@H](O)CO)NC(=O)[C@H](C(C)C)NC(=O)[C@H](Cc2cccc3ccccc23)NC(=O)[C@H](Cc2ccccc2)NC(=O)CSC[C@@H](C(=O)NCC(N)=O)NC(=O)[C@H](CCCCNC(=O)N2CCN(CC(=O)O)CC2)NC(=O)[C@H](Cc2c[nH]cn2)NC(=O)[C@H](Cc2ccc(O)cc2)NC(=O)[C@H](Cc2cccc3ccccc23)NC1=O [TGFb1_020] ({CH2CO}-F[1Nal]VK([CO-Meglumine])NV[4Pal]DD[Gly(NCH2CH2Ph)]V[1Nal]YHK([CO-Piperazinyl(4-CH2COOH)])CG-NH2; thioether N-16)	1.26	8.5	15.8	36.3	70.4	89.3	96.9	–
CC(C)[C@@H]1NC(=O)CN(CCc2ccccc2)C(=O)[C@H](CCCCNC(=O)N2CCN(CC(=O)O)CC2)NC(=O)[C@H](CC(=O)O)NC(=O)[C@H](Cc2ccncc2)NC(=O)[C@H](C(C)C)NC(=O)[C@H](CC(N)=O)NC(=O)[C@H](C(C)C)NC(=O)[C@H](C(C)C)NC(=O)[C@H](Cc2cccc3ccccc23)NC(=O)[C@H](Cc2ccccc2)NC(=O)CSC[C@@H](C(=O)NCC(N)=O)NC(=O)[C@H](CCCCNC(=O)N2CCN(CC(=O)O)CC2)NC(=O)[C@H](Cc2c[nH]cn2)NC(=O)[C@H](Cc2ccc(O)cc2)NC(=O)[C@H](Cc2cccc3ccccc23)NC1=O [TGFb1_022] ({CH2CO}-F[1Nal]VVNV[4Pal]DK([CO-Piperazinyl(4-CH2COOH)])[Gly(NCH2CH2Ph)]V[1Nal]YHK([CO-Piperazinyl(4-CH2COOH)])CG-NH2; thioether N-16)	0.91	6.49	20.8	53.8	85.2	97.1	99.5	–
B1	–	–	–	–	–	–	–	SBE reporter % inhibition, peptide 0.062 nM [3]: 10.2%; SBE reporter % inhibition, peptide 0.185 nM [3]: 26.9%; SBE reporter % inhibition, peptide 0.56 nM [3]: 58.9%; SBE reporter % inhibition, peptide 1.7 nM [3]: 87.8%; SBE reporter % inhibition, peptide 5.0 nM [3]: 97.1%; SBE reporter % inhibition, peptide 15.0 nM [3]: 98.8%; Kd [4]: 1.37 nM
